Consider five molecules from patent publication US20240391902A1, “Crystalline Form of Compound” (Shenzhen Forward Pharmaceuticals Co., Limited, priority 2020, published 2024).

Data set [1] can be described thus: Solid solubility test (2 h and 24 h). Format: physicochemical. The following applies: Test ES4: FaSSIF-V1 (pH 6.5); for Solubility measured at 2 h: 37° C., based on free base. As for the experimental part:
5 samples were weighed for each amorphous salt solid (equivalent to 20 mg of free base), and 10 mL of the following solvents were respectively added: 0.1N HCl solution (pH 1.0), 50 mM phosphate buffer (pH 4.5), FeSSIF-V1 (pH 5.0), FaSSIF-V1 (pH 6.5) and SGF (pH 2.0), and stirred at 37° C. for 2 h. The suspension was then centrifuged at 37° C., the supernatant was measured for solubility by HPLC, and the solid fraction was measured for XRPD. The target solubility was at least 2 mg (based on free base)/mL.

A short description of data set [2]: Drug absorption test in male Han-Wister rats. Format: in vivo. To be noted: for AUC0-t / Cmax / T1/2: intragastric administration, doses 80, 100, 93.2, 81.1 mg/kg for Example 1, 2, 3, 4 (calculated based on free base); for F: intragastric versus intravenous administration, doses 80, 100, 93.2, 81.1 mg/kg for Example 1, 2, 3, 4. As for the experimental part:
Intravenous administration: Three healthy male Han-Wister rats having a body weight of 250-350 g were provided by Beijing Vital River Laboratory Animal Technology Co., Ltd. The above compound of Example 1 was administered intravenously at the doses (calculated based on free base) listed in Table 1 below, respectively. Before administration and 15 min, 0.5 h, 1.0 h, 2.0 h, 4.0 h, 8.0 h, 12 h, and 24 h after administration, jugular vein puncture was performed to take 0.05 mL of blood, plasma was separated and prepared, and the drug concentration in the plasma was measured by liquid chromatography-tandem mass spectrometry (LC-MS) to obtain a drug concentration-time curve.
Intragastric administration: Twelve healthy male Han-Wister rats having a body weight of 250-350 g were provided by Beijing Vital River Laboratory Animal Technology Co., Ltd. and randomly divided into 4 groups. The above compounds of Example 1, Example 2, Example 3 and Example 4 were administered intragastrically at the doses (calculated based on free base) listed in Table 2 below, respectively. Before administration and 15 min, 0.5 h, 1.0 h, 2.0 h, 4.0 h, 8.0 h, 12 h, and 24 h after administration, jugular vein puncture was performed to take 0.05 mL of blood, plasma was separated and prepared, and the drug concentration in the plasma was measured by liquid chromatography-tandem mass spectrometry (LC-MS) to obtain a drug concentration-time curve.

Data set [3] is described as follows: Solid storage stability test. It is filed as physicochemical. The following applies: for chemical and physical stability after storage: solid/25° C./60% RH/open/1 week and/or solid/60° C./closed container/1 week. As for the experimental part: Each amorphous salt solid was weighed (two 2 mg samples were weighed for purity testing after solid storage stability study, and one 10 mg sample was weighed for XRPD testing after solid storage stability study) and placed in a glass vial. In a 25° C./60% RH solid storage stability test, the amorphous salt solid was placed in a 25° C./60% RH constant temperature and humidity chamber, and placed in the dark for 1 week (i.e. “solid/25° C./60% RH/open/1 week”), and in a 60° C. solid storage stability test, the amorphous salt solid was sealed in an oven at 60° C. and heated for 1 week in the dark (i.e. “solid/60° C./closed container/1 week”). Then the sample was taken out for purity testing, crystal form detection and appearance observation, respectively.

Data set [4] in a line: Solid solubility test (2 h and 24 h). Format: physicochemical. To be noted: for Solubility measured at 24 h: 37° C., based on free base.
The mark [5] stands for this setting: Test BS1: solid/25° C./60% RH/open/1 week.
Where [6] appears, read: Test BS2: solid/60° C./closed container/1 week.

Entries after “also recorded” stand apart in the source; their conditions may differ.

In general, Cmax refers to the highest concentration seen after dosing. Consider `C=CC(=O)Nc1cc(Nc2ncnc(-c3cn(C)c4ccccc34)n2)c(OC)cc1N(C)CCN(C)C` [Example 3], for which, in data set [1], the “pH measured at 2 h” value is listed as “(6.1)” and the “Solubility measured at 2 h” value is more than 2 mg/mL. Moreover, in data set [2], the AUC0-t was 11.213 µg·h/mL, the highest concentration (Cmax) is 1.02 µg/mL, the T1/2 is recorded as 6.04 h and the F worked out at 27.0%. Further, in data set [3] (setting [5]), the Color entry was “slight color change”; the “Morphology (XRPD crystallinity)” value is “amorphous (FIG. 91),”; the “Morphology (agglomeration, appearance)” value is on record as “partial agglomeration”. In addition, in data set [3] (setting [6]), the Color result was “no color change”; the “Morphology (XRPD crystallinity)” value was “amorphous (FIG. 91),”; the “Morphology (agglomeration, appearance)” value is “no agglomeration”. Also, in data set [3] (listed as 2 eq. hydrochloride salt), the “chemical and physical stability after storage” value (shortened to “chemical and physical stability”) is on record as “physically unstable”. Besides, the “chemical and physical stability” value in data set [3] (listed as amorphous 2 eq. hydrochloride salt) is on record as “physically unstable”. The “physical and chemical stability (in words)” value in data set [3] (solid/25° C./60% RH/open/1 week, listed as amorphous 2 eq. hydrochloride salt) is “slight color change and showed a certain hygroscopicity (partial agglomeration)”. For the same molecule, the “physical and chemical stability (in words)” value in data set [3] (solid/60° C./closed container/1 week, listed as amorphous 2 eq. hydrochloride salt) is “good physical and chemical stability”.
Turning to `C=CC(=O)Nc1cc(Nc2ncnc(-c3cn(C)c4ccccc34)n2)c(OC)cc1N(C)CCN(C)C` [Example 4], in data set [1], the “pH measured at 2 h” value was “(6.5)” and the “Solubility measured at 2 h” value is on record as more than 2 mg/mL. In data set [2], the AUC0-t was 9.703 µg·h/mL, the Cmax is 1.376 µg/mL, the T1/2 is 6.17 h and the F was found to be 26.8%. Further, in data set [3] (setting [5]), the Color result is on record as “no color change”; the “Morphology (XRPD crystallinity)” value was “amorphous (FIG. 93),”; the “Morphology (agglomeration, appearance)” value is reported as “no agglomeration”. Besides, in data set [3] (setting [6]), the Color entry is “no color change”; the “Morphology (XRPD crystallinity)” value is “amorphous (FIG. 93),”; the “Morphology (agglomeration, appearance)” value is on record as “no agglomeration”. The “chemical and physical stability” value in data set [3] (listed as 1 eq. mesylate salt) was “chemically and physically stable”. Also, the “chemical and physical stability” value in data set [3] (listed as amorphous 1 eq. mesylate salt) was “chemically and physically stable”. In addition, the “physical and chemical stability (in words)” value in data set [3] (solid/25° C./60% RH/open/1 week, listed as amorphous 1 eq. mesylate salt) was “good physical and chemical stability”. Besides, in data set [3] (solid/60° C./closed container/1 week, listed as amorphous 1 eq. mesylate salt), the “physical and chemical stability (in words)” value was “good physical and chemical stability”. In data set [4] (Test ES3: FeSSIF-VI (pH 5.0)), the “pH measured at 24 h” value was “(5.0)” and the “Solubility measured at 24 h” value is more than 2 mg/mL. In addition, in data set [4] (Test ES4: FaSSIF-VI (pH 6.5)), the “pH measured at 24 h” value is reported as “(6.6)” and the “Solubility measured at 24 h” value is more than 2 mg/mL.
With `C=CC(=O)Nc1cc(Nc2ncnc(-c3cn(C)c4ccccc34)n2)c(OC)cc1N(C)CCN(C)C` [Example 2], in data set [1], the “pH measured at 2 h” value is given as “(6.5)” and the “Solubility measured at 2 h” value was more than 2 mg/mL. In data set [2], the AUC0-t is 13.06 µg·h/mL, the Cmax was 1.024 µg/mL, the T1/2 was 6.65 h and the F is 29.3%. Besides, in data set [3] (setting [5]), the Color result was “no color change”; the “Morphology (XRPD crystallinity)” value is listed as “amorphous (FIG. 90),”; the “Morphology (agglomeration, appearance)” value is on record as “no agglomeration”. In addition, in data set [3] (setting [6]), the Color result was “no color change”; the “Morphology (XRPD crystallinity)” value is on record as “amorphous (FIG. 90),”; the “Morphology (agglomeration, appearance)” value is reported as “no agglomeration”. In addition, in data set [3] (listed as 1 eq. hydrochloride salt), the “chemical and physical stability” value is “chemically unstable”. For the same molecule, in data set [3] (listed as amorphous 1 eq. hydrochloride salt), the “chemical and physical stability” value is listed as “chemically unstable”. Besides, in data set [3] (solid/25° C./60% RH/open/1 week, listed as amorphous 1 eq. hydrochloride salt), the “physical and chemical stability (in words)” value is “good physical and chemical stability”.
As to `C=CC(=O)Nc1cc(Nc2ncnc(-c3cn(C)c4ccccc34)n2)c(OC)cc1N(C)CCN(C)C` [Example 5], in data set [1], the “pH measured at 2 h” value is recorded as “(6.2)”. Further, the “Morphology (XRPD crystallinity)” value in data set [3] (setting [5]) is on record as “low crystallinity (FIG”; in data set [3] (setting [6]) it was “amorphous (FIG. 94),”. The “Morphology (agglomeration, appearance)” value in data set [3] (setting [5]) is 94), agglomeration; in data set [3] (setting [6]), “partial agglomeration”. In addition, the “chemical and physical stability” value in data set [3] (listed as 2 eq. mesylate salt) and in data set [3] (listed as amorphous 2 eq. mesylate salt) was “physically unstable” throughout. The “physical and chemical stability (in words)” value in data set [3] (solid/25° C./60% RH/open/1 week, listed as amorphous 2 eq. mesylate salt) was “transformed from amorphous to a low crystallinity and showed a certain hygroscopicity (agglomeration)”; in data set [3] (solid/60° C./closed container/1 week, listed as amorphous 2 eq. mesylate salt) it was “a certain hygroscopicity (partial agglomeration)”.
`C=CC(=O)Nc1cc(Nc2ncnc(-c3cn(C)c4ccccc34)n2)c(OC)cc1N(C)CCN(C)C` [Example 9]: the “pH measured at 2 h” value in data set [1] is given as “(6.1)”. In addition, in data set [1], the “Solubility measured at 2 h” value is reported as more than 2 mg/mL. In addition, the values for the Color result in data set [3] (setting [5]) and in data set [3] (setting [6]) were “slight color change” and “no color change”, respectively. Besides, the entries for the “Morphology (XRPD crystallinity)” value in data set [3] (setting [5]) and in data set [3] (setting [6]) were “amorphous (FIG. 101),” and “low crystallinity”, respectively. Further, the “Morphology (agglomeration, appearance)” value in data set [3] (setting [5]) is “agglomeration (FIG. 102)”. Also, the “chemical and physical stability” value in data set [3] (listed as 1 eq. maleate salt) and in data set [3] (listed as amorphous 1 eq. maleate salt) was “chemically unstable; also recorded: physically unstable” throughout. Further, the “physical and chemical stability (in words)” value in data set [3] (solid/25° C./60% RH/open/1 week, listed as amorphous 1 eq. maleate salt) was “slight color change and showed a certain hygroscopicity (agglomeration)”; in data set [3] (solid/60° C./closed container/1 week, listed as amorphous 1 eq. maleate salt), “transformed from amorphous to a low crystallinity”.
